For two molecules, MIC and IC50 results are on record in patent publication US11932640B1, “Pyrrolo[3,4-b]quinoline compounds as antibacterial agents” (KING FAISAL UNIVERSITY, priority 2023, dated 2024).

Values after ≈ are worked out from the molar mass of the structure shown. Like-named read-outs stand apart in the source and are kept apart here.

Test [1] deals with Staphylococcus aureus ATCC 29213. The test is described as follows: Antibacterial MIC, CLSI M07-A10 dilution. It is filed as cell-based. Conditions: ATCC29213.
Test [2] relates to Staphylococcus aureus ATCC BAA-1556 (MERSA resistant). The test is described as follows: Antibacterial MIC, CLSI M07-A10 dilution. The test is classed as cell-based. Particulars: ATCCBAA1556.
The subject of test [3] is Staphylococcus epidermidis. The test is described as follows: Antibacterial MIC, CLSI M07-A10 dilution. The test is classed as cell-based.
Test [4] relates to Bacillus subtilis MTCC 441. Briefly: Antibacterial MIC, CLSI M07-A10 dilution. It is filed as cell-based. Particulars: MTCC441.
For test [5], the system named is Enterococcus faecium ATCC 35667. Briefly: Antibacterial MIC, CLSI M07-A10 dilution. Conditions: ATCC35667. It is filed as cell-based.
The test system of test [6] is Enterococcus faecium ATCC 51559 (VRE resistant). Briefly: Antibacterial MIC, CLSI M07-A10 dilution. It is filed as cell-based.
For test [7], the system named is Klebsiella pneumonia MTCC 618. Briefly: Antibacterial MIC, CLSI M07-A10 dilution. It is filed as cell-based. Conditions: Klebsiella pneumoniae, MTCC618.
The subject of test [8] is Escherichia coli MTCC 443. Briefly: Antibacterial MIC, CLSI M07-A10 dilution. It is filed as cell-based. Particulars: MTCC443.
Test [9] has as its system Pseudomonas aeruginosa MTCC 741. The test is described as follows: Antibacterial MIC, CLSI M07-A10 dilution. The test is classed as cell-based. Conditions: MTCC741.
The test system of test [10] is Mycobacterium tuberculosis H37Rv strain. The test is described as follows: Anti-tubercular alamar blue microplate MIC. The test is classed as cell-based. Conditions: 168 h, M. tuberculosis H37Rv, 7 days at 37° C., read-out: anti-mycobacterial activity (MIC). On the technique in general: Resazurin is reduced to fluorescent resorufin, in cell work by metabolically active cells.

For the next test, the target named is T1, DNA gyrase from E. coli (Escherichia coli, UniProt P0AES4+P0AES6).
T1 construct: purchased Inspiralis
T1 sequence (P0AES4 whole entry, one chain of several): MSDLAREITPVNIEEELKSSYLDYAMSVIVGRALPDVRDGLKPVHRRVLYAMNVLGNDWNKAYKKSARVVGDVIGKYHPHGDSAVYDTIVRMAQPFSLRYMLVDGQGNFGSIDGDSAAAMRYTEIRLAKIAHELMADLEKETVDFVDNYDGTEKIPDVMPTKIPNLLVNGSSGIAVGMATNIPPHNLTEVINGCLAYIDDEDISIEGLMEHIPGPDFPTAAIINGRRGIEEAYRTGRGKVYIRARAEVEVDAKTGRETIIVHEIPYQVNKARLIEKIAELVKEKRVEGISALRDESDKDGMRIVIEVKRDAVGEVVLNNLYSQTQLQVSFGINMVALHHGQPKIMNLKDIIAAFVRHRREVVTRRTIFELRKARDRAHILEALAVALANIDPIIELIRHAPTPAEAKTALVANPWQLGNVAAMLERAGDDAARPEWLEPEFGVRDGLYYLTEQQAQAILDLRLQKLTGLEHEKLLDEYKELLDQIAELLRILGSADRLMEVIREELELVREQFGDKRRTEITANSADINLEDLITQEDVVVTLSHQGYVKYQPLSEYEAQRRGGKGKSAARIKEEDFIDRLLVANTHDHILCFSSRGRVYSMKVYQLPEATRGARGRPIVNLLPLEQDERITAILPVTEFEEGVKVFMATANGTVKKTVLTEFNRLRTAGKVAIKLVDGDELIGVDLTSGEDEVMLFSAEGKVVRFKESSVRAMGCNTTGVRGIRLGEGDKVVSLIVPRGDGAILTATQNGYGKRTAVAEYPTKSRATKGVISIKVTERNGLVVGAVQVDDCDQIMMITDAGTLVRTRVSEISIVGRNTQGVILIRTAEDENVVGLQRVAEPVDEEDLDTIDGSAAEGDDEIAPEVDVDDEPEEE
Briefly: E. coli DNA gyrase inhibition (Inspiralis assay). It is filed as biochemical. As to the method:
Inhibitory potencies were investigated utilizing the Inspiralis assay on streptavidin-coated 96-well microtiter plates. First, the plates were rehydrated with buffer (20 mM Tris-HCl with pH 7.6, 0.01% w/v BSA, 0.05% v/v Tween 20, 137 mM NaCl) and the biotinylated oligonucleotide was then immobilized. After washing off the unbound oligonucleotide, the enzyme test was performed. […] Reaction solutions were incubated at 37° C. for 30 min. After that, the TF buffer (50 mM NaOAc with pH 5.0, 50 mM NaCl and 50 mM MgCl2) was added to terminate the enzymatic reaction. […] The fluorescence was measured with a microplate reader (BioTek Synergy H4, excitation: 485 nm, emission: 535 nm). Initial screening was done at 100 or 10 μM concentration of inhibitors. […] GraphPad Prism software was used to calculate the IC50 values. The result is given as the average value of three independent measurements.

Usually MIC stands for the least concentration at which growth counts as inhibited. As a reminder, the IC50 is the midpoint of a concentration-inhibition curve.

On to `CCCCCN(C)Cc1cc(C(=O)O)ccc1N1C(=O)c2nc3c(NC)cc(F)cc3c(O)c2C1=O` [Compound 12, 4-(7-fluoro-9-hydroxy-5-(methylamino)-1,3-dioxo-1,3-dihydro-2H-pyrrolo[3,4-b]quinolin-2-yl)-3-((methyl(pentyl)amino)methyl)benzoic acid], for which the MIC in [1] was determined as 1 µg/mL (≈ 2.02 µM); in test [2], 2 µg/mL (≈ 4.04 µM); in test [3], 0.75 µg/mL (≈ 1.52 µM); in test [4], 0.5 µg/mL (≈ 1.01 µM); in test [5], 0.5 µg/mL (≈ 1.01 µM); in test [6], 0.75 µg/mL (≈ 1.52 µM). In addition, the minimum inhibitory concentration (MIC) was found to be 1 µg/mL (≈ 2.02 µM) in test [7] (Klebsiella pneumonia MTCC 618, read-out: MIC); 4 µg/mL (≈ 8.09 µM) in [8]; 1 µg/mL (≈ 2.02 µM) in test [9]; 4 µg/mL (≈ 8.09 µM) in test [10]. In addition, at DNA gyrase from E. coli, the half-maximal inhibitory concentration (IC50) amounted to 16 nM.

With `CN[C@H](CC(C)C)C(=O)N[C@H]1C(=O)N[C@@H](CC(N)=O)C(=O)N[C@H]2C(=O)N[C@H]3C(=O)N[C@H](C(=O)N[C@H](C(=O)O)c4cc(O)cc(O)c4-c4cc3ccc4O)[C@H](O)c3ccc(c(Cl)c3)Oc3cc2cc(c3O[C@@H]2O[C@H](CO)[C@@H](O)[C@H](O)[C@H]2O[C@H]2C[C@](C)(N)[C@H](O)[C@H](C)O2)Oc2ccc(cc2Cl)[C@H]1O` [Vancomycin, reference compound], the MIC in test [7] is > 128 µg/mL.
